Experimental data: patent publication US20060148858A1, “1, 2-Azole derivatives with hypoglycemic and hypolipidemic activity” (priority 2002, published 2006)

Row | Structure (SMILES) | melting point [°C]
1 | CCOc1nn(-c2ccc(C(F)(F)F)cn2)cc1CCCOc1cc(OC)ccc1CCC(=O)O [Example 143, 3-[2-(3-{3-ethoxy-1-[5-(trifluoromethyl)-2-pyridyl]-1H-pyrazol-4-yl}propoxy)-4-methoxyphenyl]propionic acid] | 115 to 116
2 | CCOc1nn(-c2ccc(C(F)(F)F)cn2)cc1CCCOc1ccccc1CCC(=O)O [Example 144, 3-[2-(3-{3-ethoxy-1-[5-(trifluoromethyl)-2-pyridyl]-1H-pyrazol-4-yl}propoxy)phenyl]propionic acid] | 93 to 94
3 | CCOc1nn(-c2ccc(C(F)(F)F)cn2)cc1CCCOc1c(CCC(=O)O)cccc1OC [Example 145, 3-[2-(3-{3-ethoxy-1-[5-(trifluoromethyl)-2-pyridyl]-1H-pyrazol-4-yl}propoxy)-3-methoxyphenyl]propionic acid] | 87 to 88
4 | CCOc1nn(-c2ccc(C(F)(F)F)cn2)cc1CCCOc1cccc(OC)c1CCC(=O)O [Example 148, 3-[2-(3-{3-ethoxy-1-[5-(trifluoromethyl)-2-pyridyl]-1H-pyrazol-4-yl}propoxy)-6-methoxyphenyl]propionic acid] | 110 to 111
5 | CCOc1cc(OCCCc2cn(-c3ccc(C(F)(F)F)cn3)nc2O)ccc1CCC(=O)O [Example 151, 3-[2-ethoxy-4-(3-{3-hydroxy-1-[5-(trifluoromethyl)-2-pyridyl]-1H-pyrazol-4-yl}propoxy)phenyl]propanoic acid] | 192 to 194
6 | CCOc1cc(OCCCc2cn(-c3ccc(C(F)(F)F)cn3)nc2OCc2ccccc2)ccc1CCC(=O)O [Example 156, 3-[4-(3-{3-benzyloxy-1-[5-(trifluoromethyl)-2-pyridyl]-1H-pyrazol-4-yl}propoxy)-2-ethoxyphenyl]propanoic acid] | 106 to 107
7 | CCOc1nn(-c2ccc(C(F)(F)F)cn2)cc1CCCOc1ccc(CCC(=O)O)cc1O [Example 161, 3-[4-(3-{3-ethoxy-1-[5-(trifluoromethyl)-2-pyridyl]-1H-pyrazol-4-yl}propoxy)-3-hydroxyphenyl]propanoic acid] | 124 to 125
8 | CCOc1cc(CCC(=O)O)ccc1OCCCc1cn(-c2ccc(C(F)(F)F)cn2)nc1OCC [Example 162, 3-[3-ethoxy-4-(3-{3-ethoxy-1-[5-(trifluoromethyl)-2-pyridyl]-1H-pyrazol-4-yl}propoxy)phenyl]propanoic acid] | 114 to 115
9 | CCCOc1cc(CCC(=O)O)ccc1OCCCc1cn(-c2ccc(C(F)(F)F)cn2)nc1OCC [Example 163, 3-[4-(3-{3-ethoxy-1-[5-(trifluoromethyl)-2-pyridyl]-1H-pyrazol-4-yl}propoxy)-3-propoxyphenyl]propanoic acid] | 106 to 107
10 | CCOc1nn(-c2ccc(C(F)(F)F)cn2)cc1CCCOc1ccc(CCC(=O)O)cc1OC(C)C [Example 164, 3-[4-(3-{3-ethoxy-1-[5-(trifluoromethyl)-2-pyridyl]-1H-pyrazol-4-yl}propoxy)-3-isopropoxyphenyl]propanoic acid] | 93 to 94
11 | CCCCOc1cc(CCC(=O)O)ccc1OCCCc1cn(-c2ccc(C(F)(F)F)cn2)nc1OCC [Example 165, 3-[3-butoxy-4-(3-{3-ethoxy-1-[5-(trifluoromethyl)-2-pyridyl]-1H-pyrazol-4-yl}propoxy)phenyl]propanoic acid] | 92 to 93
12 | CCOc1nn(-c2ccc(C(F)(F)F)cn2)cc1CCCOc1ccc(CCC(=O)O)cc1OCc1ccccc1 [Example 166, 3-[3-benzyloxy-4-(3-{3-ethoxy-1-[5-(trifluoromethyl)-2-pyridyl]-1H-pyrazol-4-yl}propoxy)phenyl]propanoic acid] | 115 to 116
13 | CCOc1nn(-c2ccc(C(F)(F)F)cn2)cc1CCCOc1cc(CCC(=O)O)cc(OC)c1 [Example 167, 3-[5-(3-{3-ethoxy-1-[5-(trifluoromethyl)-2-pyridyl]-1H-pyrazol-4-yl}propoxy)-3-methoxyphenyl]propanoic acid] | 99 to 100
14 | CCOc1cc(OCCCc2cn(-c3ccc(C(F)(F)F)cn3)nc2O)ccc1CCC(=O)OC [Example 171, methyl 3-[2-ethoxy-4-(3-{3-hydroxy-1-[5-(trifluoromethyl)-2-pyridyl]-1H-pyrazol-4-yl}propoxy)phenyl]propanoate] | 147 to 148
15 | CCOc1nn(-c2ccc(C(F)(F)F)cn2)cc1CCCOc1cccc(OC)c1CC(=O)O [Example 177, [6-(3-{3-ethoxy-1-[5-(trifluoromethyl)-2-pyridyl]-1H-pyrazol-4-yl}propoxy)-2-methoxyphenyl]acetic acid] | 150 to 151
16 | O=C(O)Cc1ccccc1OCc1cn(-c2ccc(C(F)(F)F)cn2)nc1C1CCCCC1 [Example 188, [2-({3-cyclohexyl-1-[5-(trifluoromethyl)-2-pyridyl]-1H-pyrazol-4-yl}methoxy)phenyl]acetic acid] | 131 to 132
17 | COc1cccc(CC(=O)O)c1OCCCc1cn(-c2nnc(C(F)(F)F)s2)nc1C(C)C [Example 194, [3-methoxy-2-(3-{3-(1-methylethyl)-1-[5-(trifluoromethyl)-1,3,4-thiadiazole-2-yl]-1H-pyrazol-4-yl}propoxy)phenyl]acetic acid] | 144 to 145
18 | CCCCc1nn(-c2ccc(C(F)(F)F)cn2)cc1CCCOc1nn(C)cc1CC(=O)O [Example 199, [3-(3-{3-butyl-1-[5-(trifluoromethyl)-2-pyridyl]-1H-pyrazol-4-yl}propoxy)-1-methyl-1H-pyrazol-4-yl]acetic acid] | 125 to 126
19 | CCCCc1nn(-c2ccc(C(F)(F)F)cn2)cc1CCCOc1cc(CC(=O)O)ccc1OCC [Example 202, [3-(3-{3-butyl-1-[5-(trifluoromethyl)-2-pyridyl]-1H-pyrazol-4-yl}propoxy)-4-ethoxyphenyl]acetic acid] | 105 to 106
20 | CCCc1nn(-c2ccc(C(F)(F)F)cn2)cc1CCCOc1c(F)cccc1CC(=O)O [Example 211, [3-fluoro-2-(3-{3-propyl-1-[5-(trifluoromethyl)-2-pyridyl]-1H-pyrazol-4-yl}propoxy)phenyl]acetic acid] | 105 to 106

The next lines start with the values.

Row | melting point [°C] | Structure (SMILES)
21 | 77 to 78 | CCCc1nn(-c2ccc(C(F)(F)F)cn2)cc1COc1cccc(CC(=O)O)c1 [Example 147, [3-({3-propyl-1-[5-(trifluoromethyl)-2-pyridyl]-1H-pyrazol-4-yl}methoxy)phenyl]acetic acid]
22 | 142 to 143 | Cc1nn(-c2ccc(C(F)(F)F)cn2)cc1COc1cccc(CC(=O)O)c1 [Example 149, [3-({3-methyl-1-[5-(trifluoromethyl)-2-pyridyl]-1H-pyrazol-4-yl}methoxy)phenyl]acetic acid]
23 | 82 to 83 | CCCc1nn(-c2ccc(C(F)(F)F)cn2)cc1CCCOc1cccc(C(C)(C)C(=O)O)c1 [Example 159, 2-methyl-2-[3-(3-{3-propyl-1-[5-(trifluoromethyl)-2-pyridyl]-1H-pyrazol-4-yl}propoxy)phenyl]propanoic acid]
24 | 131 to 132 | CCOc1nn(-c2ccc(C(F)(F)F)cn2)cc1CCCOc1cccc(C(C)(C)C(=O)O)c1 [Example 160, 2-[3-(3-{3-ethoxy-1-[5-(trifluoromethyl)-2-pyridyl]-1H-pyrazol-4-yl}propoxy)phenyl]-2-methylpropanoic acid]
25 | 114 to 115 | CC(C)c1nn(-c2ccc(C(F)(F)F)cn2)cc1COc1cccc(CC(=O)O)c1 [Example 176, 3-{3-isopropyl-1-[5-(trifluoromethyl)-2-pyridyl]-1H-pyrazol-4-yl}methoxyphenylacetic acid]
26 | 92 to 93 | CC(C)c1nn(-c2ccc(C(F)(F)F)cc2)cc1COc1cccc(CC(=O)O)c1 [Example 178, [3-({3-isopropyl-1-[4-(trifluoromethyl)phenyl]-1H-pyrazol-4-yl}methoxy)phenyl]acetic acid]
27 | 122 to 123 | COc1ccc(CC(=O)O)cc1OCCCc1cn(-c2ccc(C(F)(F)F)cn2)nc1C(C)C [Example 183, [3-(3-{3-isopropyl-1-[5-(trifluoromethyl)-2-pyridyl]-1H-pyrazol-4-yl}propoxy)-4-methoxyphenyl]acetic acid]
28 | 129 to 130 | O=C(O)Cc1cccc(OCc2cn(-c3ccc(C(F)(F)F)cn3)nc2C2CCCCC2)c1 [Example 187, [3-({3-cyclohexyl-1-[5-(trifluoromethyl)-2-pyridyl]-1H-pyrazol-4-yl}methoxy)phenyl]acetic acid]
29 | 94 to 95 | O=C(O)CCc1cccc(OCc2cn(-c3ccc(C(F)(F)F)cn3)nc2C2CCCCC2)c1 [Example 191, 3-(3-{3-cyclohexyl-1-[5-(trifluoromethyl)-2-pyridyl]-1H-pyrazol-4-yl}methoxyphenyl)propionic acid]
30 | 128 to 129 | O=C(O)CCCc1cccc(OCc2cn(-c3ccc(C(F)(F)F)cn3)nc2C2CCCCC2)c1 [Example 195, 4-(3-{3-cyclohexyl-1-[5-(trifluoromethyl)-2-pyridyl]-1H-pyrazol-4-yl}methoxyphenyl)butanoic acid]
31 | 109 to 110 | COc1cc(CC(=O)O)cc(OCCCc2cn(-c3ccc(C(F)(F)F)cn3)nc2C(C)C)c1 [Example 203, [3-(3-{3-isopropyl-1-[5-(trifluoromethyl)-2-pyridyl]-1H-pyrazol-4-yl}propoxy)-5-methoxyphenyl]acetic acid]
32 | 143 to 144 | COc1ccc(CC(=O)O)c(OCCCc2cn(-c3ccc(C(F)(F)F)cn3)nc2C(C)C)c1 [Example 205, [2-(3-{3-isopropyl-1-[5-(trifluoromethyl)-2-pyridyl]-1H-pyrazol-4-yl}propoxy)-4-methoxyphenyl]acetic acid]
33 | 143 to 144 | COc1ccc(OCCCc2cn(-c3ccc(C(F)(F)F)cn3)nc2C(C)C)c(CC(=O)O)c1 [Example 206, [2-(3-{3-isopropyl-1-[5-(trifluoromethyl)-2-pyridyl]-1H-pyrazol-4-yl}propoxy)-5-methoxyphenyl]acetic acid]
34 | 183 to 184 | COc1cccc(OCCCc2cn(-c3ccc(C(F)(F)F)cn3)nc2C(C)C)c1CC(=O)O [Example 208, [2-(3-{3-isopropyl-1-[5-(trifluoromethyl)-2-pyridyl]-1H-pyrazol-4-yl}propoxy)-6-methoxyphenyl]acetic acid]
